Reference: patent publication US11970497B2, “Tricyclic AKR1C3 dependent KARS inhibitors” (Novartis AG, priority 2019, dated 2024)

How the values were obtained:
[1] = test system: H460 (NRF2 pathway mutant cell line with high AKR1C3 expression); experiment: In vitro cell proliferation assay (CellTiter-Glo), H460; format: cell-based; conditions: Homo sapiens, NCI-H460, 72 h; H460 cells, 3 days, CellTiter-Glo, top concentration 10 μM; read-out: H460 Qualified absolute AC50
Text: (§1) Cellular Proliferation Assay to Assess Compounds Activity in H460 (NRF2 Pathway Mutant Cell Line with High AKR1C3 Expression) and Hara (NRF2 Pathway Wild Type Cell Line with Low AKR1C3 Expression).
(§2) The cell lines A549 and H460 are NRF2 pathway mutant and specifically contain genetic alterations in KEAP1 (A549: G333C, H460: D236H) (Singh A. et al., 2006 PLoS Medicine 3(10) e420). In these cell lines the NRF2 pathway is constitutively active and these cells express high levels of NRF2 protein and NRF2 pathway target gene AKR1C3. […] They have low AKR1C3 expression.
(§3) In Vitro Cell Proliferation Assay
(§4) Day 1, for H460 800 cells/well or 40 μL of 2×10^4 cells/mL and for Hara 2000 cells/well or 40 μL of 5×10^4 cells/mL medium (RPMI-1640 supplemented with 10% fetal bovine serum and 1% penicillin/streptomycin) were seeded into 384-well tissue culture plates. Day 2, compounds were serially diluted 1:5 to generate 8 point dose response curves and added to cells for a final top concentration of 10 μM. DMSO (1%) control and MG132 (30 μM) controls are added in columns 23 and 24 respectively on each plate for positive and negative control. After incubation for 3 days at 37° C./5% CO2, 30 μl of CellTiter-Glo reagent (Promega) was added and the plates were incubated for 10 min on plate shaker. The amount of luminescence was determined using a Perkin Elmer Envision plate reader. CellTiter-Glo luminescence values of cells treated with DMSO and MG132 controls were used to normalize the data and calculate percentage activity and AC50s of compounds using the Helios Software suite.

[2] = test system: Hara (NRF2 pathway wild type cell line with low AKR1C3 expression); experiment: In vitro cell proliferation assay (CellTiter-Glo), Hara; format: cell-based; conditions: 72 h; Hara cells, 3 days, CellTiter-Glo, top concentration 10 μM; read-out: HARA Qualified absolute AC50
Text: as §1, §2, §3, §4

Structure (SMILES) | AC50 [1] [nM] | AC50 [2] [nM]
COc1cc(F)ccc1CNC(=O)N1CCC2(CC1)CC(O)c1cc(F)ccc1N2 (racemic) [Example 168, 6′-fluoro-N-(4-fluoro-2-methoxybenzyl)-4′-hydroxy-3′,4′-dihydro-1′H-spiro[piperidine-4,2′-quinoline]-1-carboxamide] | 41 | 49
CN1c2ccc(F)cc2[C@@H](O)CC12CCN(C(=O)NCc1ccc(F)cc1)CC2 (single isomer, unassigned) [Example 151b] | 3400 | 6070
O=C(NCc1ccc(F)cc1O)N1CCC2(CC1)C[C@H](O)c1cc(F)ccc1N2 (single isomer, unassigned) [Example 154b] | 464 | 749
COc1cc(F)ccc1CNC(=O)N1CCC2(CC1)CC(=O)c1cc(F)ccc1N2C [Example 2, 6′-fluoro-N-(4-fluoro-2-methoxybenzyl)-1′-methyl-4′-oxo-3′,4′-dihydro-1′H-spiro[piperidine-4,2′-quinoline]-1-carboxamide] | 5 | > 10000
CN1c2ccc(F)cc2C(=O)CC12CCN(C(=O)NCc1ccc(F)c(OCCO)c1)CC2 [Example 3, 6′-fluoro-N-(4-fluoro-3-(2-hydroxyethoxy)benzyl)-1′-methyl-4′-oxo-3′,4′-dihydro-1′H-spiro[piperidine-4,2′-quinoline]-1-carboxamide] | 5 | 1760
CN1c2ccc(F)cc2C(=O)CC12CCN(C(=O)NCc1ccc(F)cc1F)CC2 [Example 5, N-(2,4-difluorobenzyl)-6′-fluoro-1′-methyl-4′-oxo-3′,4′-dihydro-1′H-spiro[piperidine-4,2′-quinoline]-1-carboxamide] | 8 | > 10000
CCN1c2ccc(F)cc2C(=O)CC12CCN(C(=O)NCc1ccc(F)cc1)CC2 [Example 6, 1′-ethyl-6′-fluoro-N-(4-fluorobenzyl)-4′-oxo-3′,4′-dihydro-1′H-spiro[piperidine-4,2′-quinoline]-1-carboxamide] | 9 | > 10000
COc1cc(CNC(=O)N2CCC3(CC2)CC(=O)c2cc(F)ccc2N3C)ccc1F [Example 8, 6′-fluoro-N-(4-fluoro-3-methoxybenzyl)-1′-methyl-4′-oxo-3′,4′-dihydro-1′H-spiro[piperidine-4,2′-quinoline]-1-carboxamide] | 15 | > 10000
Cc1occc1CNC(=O)N1CCC2(CC1)CC(=O)c1cc(F)cc(F)c1N2 [Example 10, 6′,8′-difluoro-N-((2-methylfuran-3-yl)methyl)-4′-oxo-3′,4′-dihydro-1′H-spiro[piperidine-4,2′-quinoline]-1-carboxamide] | 21 | 5410
NC(=O)c1cc(CNC(=O)N2CCC3(CC2)CC(=O)c2cc(F)cc(F)c2N3)ccc1F [Example 11, N-(3-carbamoyl-4-fluorobenzyl)-6′,8′-difluoro-4′-oxo-3′,4′-dihydro-1′H-spiro[piperidine-4,2′-quinoline]-1-carboxamide] | 23 | > 10000
[2H]C([2H])(NC(=O)N1CCC2(CC1)CC(=O)c1cc(F)ccc1N2)c1ccc(F)cc1 [Example 12, 6′-fluoro-N-((4-fluorophenyl)methyl-d2)-4′-oxo-3′,4′-dihydro-1′H-spiro[piperidine-4,2′-quinoline]-1-carboxamide] | 24 | > 10000
CCN1c2ccc(F)cc2C(=O)CC12CCN(C(=O)NCc1ccc(F)c(C(N)=O)c1)CC2 [Example 13, N-(3-carbamoyl-4-fluorobenzyl)-1′-ethyl-6′-fluoro-4′-oxo-3′,4′-dihydro-1′H-spiro[piperidine-4,2′-quinoline]-1-carboxamide] | 25 | 7950
COCCN1c2ccc(F)cc2C(=O)CC12CCN(C(=O)NCc1ccc(F)cc1)CC2 [Example 14, 6′-fluoro-N-(4-fluorobenzyl)-1′-(2-methoxyethyl)-4′-oxo-3′,4′-dihydro-1′H-spiro[piperidine-4,2′-quinoline]-1-carboxamide] | 29 | 795
O=C1CC2(CCN(C(=O)NCc3ccc(F)c(-c4cnco4)c3)CC2)Nc2ccc(F)cc21 [Example 15, 6′-fluoro-N-(4-fluoro-3-(oxazol-5-yl)benzyl)-4′-oxo-3′,4′-dihydro-1′H-spiro[piperidine-4,2′-quinoline]-1-carboxamide] | 29 | 9440
O=C1CC2(CCN(C(=O)NCc3ccc(F)cc3F)CC2)Nc2ccc(F)cc21 [Example 16, N-(2,4-difluorobenzyl)-6′-fluoro-4′-oxo-3′,4′-dihydro-1′H-spiro[piperidine-4,2′-quinoline]-1-carboxamide] | 29 | > 10000
CN1c2ccc(F)cc2C(=O)CC12CCN(C(=O)NCc1cc(NCCO)c(F)cc1F)CC2 [Example 17, N-(2,4-difluoro-5-((2-hydroxyethyl)amino)benzyl)-6′-fluoro-1′-methyl-4′-oxo-3′,4′-dihydro-1′H-spiro[piperidine-4,2′-quinoline]-1-carboxamide] | 30 | > 10000
CCN1c2ccc(F)cc2C(=O)CC12CCN(C(=O)NCc1cc(NCCO)c(F)cc1F)CC2 [Example 18, N-(2,4-difluoro-5-((2-hydroxyethyl)amino)benzyl)-1′-ethyl-6′-fluoro-4′-oxo-3′,4′-dihydro-1′H-spiro[piperidine-4,2′-quinoline]-1-carboxamide] | 30 | 4190
O=C1CC2(CCN(C(=O)NCc3ccc(F)cc3)CC2)N(CCO)c2ccc(F)cc21 [Example 19, 6′-fluoro-N-(4-fluorobenzyl)-1′-(2-hydroxyethyl)-4′-oxo-3′,4′-dihydro-1′H-spiro[piperidine-4,2′-quinoline]-1-carboxamide] | 31 | 694
COCCNc1cc(F)ccc1CNC(=O)N1CCC2(CC1)CC(=O)c1cc(F)ccc1N2C [Example 20, 6′-fluoro-N-(4-fluoro-2-((2-methoxyethyl)amino)benzyl)-1′-methyl-4′-oxo-3′,4′-dihydro-1′H-spiro[piperidine-4,2′-quinoline]-1-carboxamide] | 33 | > 10000
COCCOc1cc(CNC(=O)N2CCC3(CC2)CC(=O)c2cc(F)ccc2N3C)ccc1F [Example 21, 6′-fluoro-N-(4-fluoro-3-(2-methoxyethoxy)benzyl)-1′-methyl-4′-oxo-3′,4′-dihydro-1′H-spiro[piperidine-4,2′-quinoline]-1-carboxamide] | 34 | > 10000
C#CCNC(=O)c1cc(CNC(=O)N2CCC3(CC2)CC(=O)c2cc(F)ccc2N3)ccc1F [Example 128, 6′-fluoro-N-(4-fluoro-3-(prop-2-yn-1-ylcarbamoyl)benzyl)-4′-oxo-3′,4′-dihydro-1′H-spiro[piperidine-4,2′-quinoline]-1-carboxamide] | 1480 | 
CN1c2ccc(F)cc2C(=O)CC12CCN(C(=O)NCc1ccc(F)c(NCCC(=O)O)c1)CC2 [Example 148, 3-((2-fluoro-5-((6′-fluoro-1′-methyl-4′-oxo-3′,4′-dihydro-1′H-spiro[piperidine-4,2′-quinoline]-1-carboxamido)methyl)phenyl)amino)propanoic acid] | 4930 | 
